“Also recorded” adds a separate entry of the source. Non-standard residues stand in square brackets, D forms with d. *: point of attachment. Myristoyl = CCCCCCCCCCCCCC(=O)*; pS = N[C@@H](COP(=O)(O)O)C(=O)O
Legend:
[1] = system: fasting (atrophy-induced) mice, Tibialis Anterior (TA) muscle; assay: Fasting-induced muscle atrophy in mice treated with GSK-3 inhibitors; format: in vivo; settings: for TA muscle weight (muscle atrophy): i.p. 0.5 mg CHIR98014 or 0.3 mg L803mts per mouse on day 1 and day 2 of fasting, vs fed and fasting vehicle controls (FIG. 3)
Description: All animal experiments were consistent with Israel Council on Animal Experiments guidelines and the Institutional Regulations of Animal Care and Use. Specialized personnel provided mice care in the institutional animal facility. In fasting (2 d) experiments, food was removed from cages on the fifth day after electroporation.
Mice were divided into two groups: those subjected to fasting to induce muscle atrophy, and those that were fed and used as fed control. Mice of the fasting group were injected intraperitoneally with either CHIR98014 or L803mts to examine their effect on muscle wasting. Control groups (Fed, fasting) were injected with vehicle (3% DMSO in saline). Each mouse (27-30 grams body weight) was injected with 0.3 mg L803mts or 0.5 mg CHIR98014, twice: on the first and then on the second day of fasting. Whole Tibilis anterior (TA) muscles were then collected and the weight loss in these samples over 2 days was measured.
Tideglusib (4.35 mg/ml) was mixed with 26% PEG400 (v/v), 15% Cremophor EL (v/v), and 59% ddH2O (v/v), to a total volume of 2.3 ml. Each mouse received 200 microliter (μL) (0.87 mg Tideglusib) of the solution on the first day of fasting, and 150 μL (0.65 mg Tideglusib) on the second day.
Then, the efficacy of CHIR99021, another exemplary ATP-competitive GSK3β inhibitor, was evaluated. To this, fasting (atrophy-induced) mice were injected intraperitoneally with 16 mg/kg CHIR99021 (200 μL per mouse) on day 1 and on day 2 of fasting. At the end of the experiment, mice were sacrificed, and their tibialis anterior (TA) muscles were dissected and weighed, in comparison with fed mice and untreated fasting (atrophy-induced) mice.

GSK-3 = settings: background statement; cited from earlier work

Row | Compound | effect on muscle atrophy (body weight and TA muscle to body weight ratio) ([1]; 2-day fasting mice, Tideglusib via gavage, 0.87 mg on day 1 and 0.65 mg on day 2 (20-30 mg/kg) (FIGS. 4A-B)) | TA muscle weight (muscle loss) ([1]; fasting mice, CHIR99021 16 mg/kg i.p. on day 1 and day 2 of fasting, data not shown, 16 mg/kg) | GSK-3 inhibition, potency and selectivity (GSK-3) | TA muscle weight (muscle atrophy) ([1]; 2-day fasting mice)
1 | O=c1sn(-c2cccc3ccccc23)c(=O)n1Cc1ccccc1 [Tideglusib] | minimal effect on preventing muscle atrophy; also recorded: minor effect in treating muscle atrophy |  |  | 
2 | Cc1c[nH]c(-c2cnc(NCCNc3ccc(C#N)cn3)nc2-c2ccc(Cl)cc2Cl)n1 [CHIR99021] |  | did not mitigate this muscle loss; also recorded: inferior activity | highly potent and selective inhibitors of GSK-3 | 
3 | Nc1nc(NCCNc2ncc(-n3ccnc3)c(-c3ccc(Cl)cc3Cl)n2)ccc1[N+](=O)[O-] [CHIR98014] |  |  | highly potent and selective inhibitors of GSK-3 | no reduction in muscle weight compared to control; also recorded: completely prevented the reduction in muscle mass
4 | Myr-Gly-Lys-Glu-Ala-Pro-Pro-Ala-Pro-Pro-Gln-{Ser(p)}-Pro-NH2 (Myristoyl-GKEAPPAPPQ[pS]P-NH2; SMILES CCCCCCCCCCCCCC(=O)NCC(=O)N[C@@H](CCCCN)C(=O)N[C@@H](CCC(=O)O)C(=O)N[C@@H](C)C(=O)N1CCC[C@H]1C(=O)N1CCC[C@H]1C(=O)N[C@@H](C)C(=O)N1CCC[C@H]1C(=O)N1CCC[C@H]1C(=O)N[C@@H](CCC(N)=O)C(=O)N[C@@H](COP(=O)(O)O)C(=O)N1CCC[C@H]1C(N)=O) [L803-mts] |  |  |  | attenuation in muscle weight; also recorded: inferior activity to that of CHIR98014

— patent publication US20250352544A1, “TREATMENT OF MUSCLE ATROPHY USING GSK-3 INHIBITORS” (Technion Research & Development Foundation Limited, priority 2024, published 2025)
